From patent publication US8846704B2, “Thiopyrimidine-based compounds and uses thereof” (YM Biosciences Austraila Pty Ltd, priority 2007, dated 2014)
pIC50: −log10 of the molar value.

Experiments:
Format in all cases: biochemical
human CSF1-R (FMS) = target: T1, human CSF1-R (FMS) (Homo sapiens, UniProt P07333); experiment: Alphascreen tyrosine kinase enzyme assay, CSF-1R (FMS) kinase domain; details: read-out: FMS, FLT3, or HCK IC50_nM (FMS)
T1 construct: from codon I553 to Q961; GST (N); made in house; host or cells: Sf9 insect cells (baculovirus)
T1 sequence (P07333 553-961): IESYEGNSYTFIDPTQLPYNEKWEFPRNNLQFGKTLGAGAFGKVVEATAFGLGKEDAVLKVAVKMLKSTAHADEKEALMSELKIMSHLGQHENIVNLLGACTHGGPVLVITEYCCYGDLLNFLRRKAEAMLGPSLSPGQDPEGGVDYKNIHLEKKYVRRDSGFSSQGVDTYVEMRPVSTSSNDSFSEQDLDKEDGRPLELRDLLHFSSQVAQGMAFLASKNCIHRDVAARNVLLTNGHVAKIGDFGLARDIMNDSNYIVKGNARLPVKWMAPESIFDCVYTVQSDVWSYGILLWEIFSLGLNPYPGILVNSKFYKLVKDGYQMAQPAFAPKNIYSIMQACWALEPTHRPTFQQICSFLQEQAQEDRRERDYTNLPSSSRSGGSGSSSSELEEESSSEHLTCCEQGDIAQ
Experimental: For screening purposes, compounds (in 100% DMSO) were warmed at 37 degrees for at least 20 minutes before use. A […] stock was initially made in assay buffer, where the final concentration of DMSO was 0.3%. The stocks were then diluted in 384 well Optiplates (Packard) where the final concentration of the compound was […].
The kinase domain of human CSF1-R from codon I553 to Q961 was cloned into the pDest20 expression vector (Invitrogen). The CSF1-R plasmid was then transformed into competent DH10Bac cells (Gibco), and the recombinant baculovirus produced prepared for transfection into Sf9 insect cells.
Baculovirus preparations from each of the constructs were infected into either one or five liters of Sf9 cells (Invitrogen) grown in SF-900 medium (Invitrogen) to a cell density of approximately 1-2×10^6 cells/ml. Cells were infected with virus at a MOI of 0.8-3.0. Cells were harvested and lysed. Tyrosine kinase domains were purified by affinity chromatography on a glutathione-agarose column (Scientifix Pty. Ltd. catalog #: GSH-200).
Kinase assays were performed in 384 well Optiplates (Packard) using an Alphascreen Protein Tyrosine Kinase PY100 detection kit The compounds were pre-incubated with affinity purified PTK domain in the presence of phosphotyrosine assay buffer (10 mM HEPES, pH 7.5, 100 mM MgCl2, 25 mM NaCl, […] and 0.1% Tween 20) for 20 minutes. The compounds were then incubated with substrate in the presence of ATP. The substrate used was susbtrate-1 with the sequence biotin-EGPWLEEEEEAYGWMDF-NH2 [SEQ. ID. NO. 13] (final concentration […]). For HCK 80 μm ATP was used and incubated for 60 minutes. Alphascreen phosphotyrosine acceptor beads followed by streptavidin donor beads at a concentration of 1/100 in stop buffer were added to each well under subdued light and incubated for 2-3 hours., The Alphascreen plates were read on a Packard Fusion Alpha instrument.

BTK(h) = target: T2, BTK(h) (Homo sapiens, UniProt Q06187); experiment: Upstate KinaseProfiler enzyme assay, BTK; details: 500 nM compound; read-out: Percent inhibition at 500 nM BTK(h)
T2 construct: purchased Upstate Biotechnology (Dundee, UK), KinaseProfiler service
T2 sequence (Q06187 whole entry): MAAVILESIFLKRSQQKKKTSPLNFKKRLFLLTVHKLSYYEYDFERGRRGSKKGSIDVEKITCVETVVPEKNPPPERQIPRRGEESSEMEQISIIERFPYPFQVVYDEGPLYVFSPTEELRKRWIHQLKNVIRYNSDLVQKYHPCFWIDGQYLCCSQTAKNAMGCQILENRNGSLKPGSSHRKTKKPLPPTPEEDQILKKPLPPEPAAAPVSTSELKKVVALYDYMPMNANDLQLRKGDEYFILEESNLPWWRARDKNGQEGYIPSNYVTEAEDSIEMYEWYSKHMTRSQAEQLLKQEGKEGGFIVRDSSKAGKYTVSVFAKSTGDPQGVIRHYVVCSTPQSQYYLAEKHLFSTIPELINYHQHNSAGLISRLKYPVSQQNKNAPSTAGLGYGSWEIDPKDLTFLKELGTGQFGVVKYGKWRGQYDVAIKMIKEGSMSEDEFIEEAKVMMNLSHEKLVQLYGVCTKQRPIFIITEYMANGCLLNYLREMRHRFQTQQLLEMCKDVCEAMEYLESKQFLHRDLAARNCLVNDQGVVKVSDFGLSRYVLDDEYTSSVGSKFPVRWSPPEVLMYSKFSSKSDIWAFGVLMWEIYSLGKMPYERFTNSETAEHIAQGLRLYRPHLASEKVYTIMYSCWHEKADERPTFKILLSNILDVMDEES
Method in brief: (§1)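 First, enzymes were pre-diluted (10× working) in 20 mM MOPS, pH 7.0, supplemented with EDTA (1 mM), BSA (1 mg/ml) and glycerol (5%), plus 0.1% β-mercaptoethanol and 0.01% Brij-35. Next, they were added to the assay alongside substrates diluted in de-ionised water.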

Flt 4(h) = target: T3, Flt 4(h) (Homo sapiens, UniProt P35916); experiment: Upstate KinaseProfiler enzyme assay, Flt 4; details: 500 nM compound; read-out: Percent inhibition at 500 nM Flt 4(h)
T3 construct: purchased Upstate Biotechnology (Dundee, UK), KinaseProfiler service
T3 sequence (P35916 25-1363): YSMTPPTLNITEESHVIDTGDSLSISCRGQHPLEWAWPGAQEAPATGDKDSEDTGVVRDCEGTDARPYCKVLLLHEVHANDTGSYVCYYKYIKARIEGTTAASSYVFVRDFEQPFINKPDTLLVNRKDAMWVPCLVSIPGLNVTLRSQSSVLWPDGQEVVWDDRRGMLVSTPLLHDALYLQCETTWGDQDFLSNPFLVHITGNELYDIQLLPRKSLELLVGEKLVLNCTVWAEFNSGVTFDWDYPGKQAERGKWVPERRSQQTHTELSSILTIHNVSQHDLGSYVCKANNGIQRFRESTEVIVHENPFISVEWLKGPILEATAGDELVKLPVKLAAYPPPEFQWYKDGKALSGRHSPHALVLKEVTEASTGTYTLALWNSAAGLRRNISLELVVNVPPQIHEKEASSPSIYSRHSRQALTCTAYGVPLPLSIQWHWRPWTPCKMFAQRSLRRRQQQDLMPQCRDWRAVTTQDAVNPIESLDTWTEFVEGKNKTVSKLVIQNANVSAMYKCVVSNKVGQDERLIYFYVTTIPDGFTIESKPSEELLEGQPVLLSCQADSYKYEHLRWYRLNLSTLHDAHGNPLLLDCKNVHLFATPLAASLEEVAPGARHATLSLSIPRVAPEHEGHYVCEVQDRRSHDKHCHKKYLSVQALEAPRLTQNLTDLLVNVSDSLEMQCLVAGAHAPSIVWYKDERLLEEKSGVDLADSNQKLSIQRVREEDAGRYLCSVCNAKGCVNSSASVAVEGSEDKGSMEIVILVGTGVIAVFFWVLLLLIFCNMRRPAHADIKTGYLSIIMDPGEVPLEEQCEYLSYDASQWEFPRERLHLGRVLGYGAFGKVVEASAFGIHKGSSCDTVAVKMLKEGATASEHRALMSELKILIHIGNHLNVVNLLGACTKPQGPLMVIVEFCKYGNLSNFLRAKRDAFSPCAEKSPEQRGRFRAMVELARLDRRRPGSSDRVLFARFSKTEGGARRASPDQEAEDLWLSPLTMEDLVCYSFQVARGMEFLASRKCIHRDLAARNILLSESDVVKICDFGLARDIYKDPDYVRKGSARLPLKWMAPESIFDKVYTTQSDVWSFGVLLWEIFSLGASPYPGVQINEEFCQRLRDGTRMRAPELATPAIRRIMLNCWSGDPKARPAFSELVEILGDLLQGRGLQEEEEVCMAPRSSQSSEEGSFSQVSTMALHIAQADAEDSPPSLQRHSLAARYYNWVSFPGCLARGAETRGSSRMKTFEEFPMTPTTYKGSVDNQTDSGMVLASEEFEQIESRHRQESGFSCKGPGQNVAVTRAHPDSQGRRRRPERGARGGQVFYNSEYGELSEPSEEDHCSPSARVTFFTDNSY
Method in brief: as §1

Bmx(h) = target: T4, Bmx(h) (Homo sapiens, UniProt P51813); experiment: Upstate KinaseProfiler enzyme assay, Bmx; details: 500 nM compound; read-out: Percent inhibition at 500 nM Bmx(h)
T4 construct: purchased Upstate Biotechnology (Dundee, UK), KinaseProfiler service
T4 sequence (P51813 1-675): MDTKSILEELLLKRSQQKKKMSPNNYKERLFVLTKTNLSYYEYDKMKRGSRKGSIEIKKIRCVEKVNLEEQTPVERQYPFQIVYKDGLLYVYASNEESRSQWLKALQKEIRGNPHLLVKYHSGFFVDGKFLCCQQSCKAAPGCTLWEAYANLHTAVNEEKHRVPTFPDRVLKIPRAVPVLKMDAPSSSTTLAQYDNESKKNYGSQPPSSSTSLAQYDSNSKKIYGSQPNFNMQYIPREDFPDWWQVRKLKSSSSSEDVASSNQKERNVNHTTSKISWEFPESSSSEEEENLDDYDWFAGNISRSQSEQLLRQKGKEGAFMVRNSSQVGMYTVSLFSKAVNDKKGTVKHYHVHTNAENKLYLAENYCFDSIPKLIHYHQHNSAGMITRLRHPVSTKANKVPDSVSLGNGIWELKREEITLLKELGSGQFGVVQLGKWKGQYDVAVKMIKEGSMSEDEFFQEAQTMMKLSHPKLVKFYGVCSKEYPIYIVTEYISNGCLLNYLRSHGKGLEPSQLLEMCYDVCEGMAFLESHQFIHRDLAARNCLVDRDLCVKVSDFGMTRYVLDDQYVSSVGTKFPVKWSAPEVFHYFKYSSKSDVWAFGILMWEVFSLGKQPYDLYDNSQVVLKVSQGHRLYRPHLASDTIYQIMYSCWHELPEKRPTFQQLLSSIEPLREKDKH
Method in brief: as §1

Flt 1(h) = target: T5, Flt 1(h) (Homo sapiens, UniProt P17948); experiment: Upstate KinaseProfiler enzyme assay, Flt 1; details: 500 nM compound; read-out: Percent inhibition at 500 nM Flt 1(h)
T5 construct: purchased Upstate Biotechnology (Dundee, UK), KinaseProfiler service
T5 sequence (P17948 27-1338): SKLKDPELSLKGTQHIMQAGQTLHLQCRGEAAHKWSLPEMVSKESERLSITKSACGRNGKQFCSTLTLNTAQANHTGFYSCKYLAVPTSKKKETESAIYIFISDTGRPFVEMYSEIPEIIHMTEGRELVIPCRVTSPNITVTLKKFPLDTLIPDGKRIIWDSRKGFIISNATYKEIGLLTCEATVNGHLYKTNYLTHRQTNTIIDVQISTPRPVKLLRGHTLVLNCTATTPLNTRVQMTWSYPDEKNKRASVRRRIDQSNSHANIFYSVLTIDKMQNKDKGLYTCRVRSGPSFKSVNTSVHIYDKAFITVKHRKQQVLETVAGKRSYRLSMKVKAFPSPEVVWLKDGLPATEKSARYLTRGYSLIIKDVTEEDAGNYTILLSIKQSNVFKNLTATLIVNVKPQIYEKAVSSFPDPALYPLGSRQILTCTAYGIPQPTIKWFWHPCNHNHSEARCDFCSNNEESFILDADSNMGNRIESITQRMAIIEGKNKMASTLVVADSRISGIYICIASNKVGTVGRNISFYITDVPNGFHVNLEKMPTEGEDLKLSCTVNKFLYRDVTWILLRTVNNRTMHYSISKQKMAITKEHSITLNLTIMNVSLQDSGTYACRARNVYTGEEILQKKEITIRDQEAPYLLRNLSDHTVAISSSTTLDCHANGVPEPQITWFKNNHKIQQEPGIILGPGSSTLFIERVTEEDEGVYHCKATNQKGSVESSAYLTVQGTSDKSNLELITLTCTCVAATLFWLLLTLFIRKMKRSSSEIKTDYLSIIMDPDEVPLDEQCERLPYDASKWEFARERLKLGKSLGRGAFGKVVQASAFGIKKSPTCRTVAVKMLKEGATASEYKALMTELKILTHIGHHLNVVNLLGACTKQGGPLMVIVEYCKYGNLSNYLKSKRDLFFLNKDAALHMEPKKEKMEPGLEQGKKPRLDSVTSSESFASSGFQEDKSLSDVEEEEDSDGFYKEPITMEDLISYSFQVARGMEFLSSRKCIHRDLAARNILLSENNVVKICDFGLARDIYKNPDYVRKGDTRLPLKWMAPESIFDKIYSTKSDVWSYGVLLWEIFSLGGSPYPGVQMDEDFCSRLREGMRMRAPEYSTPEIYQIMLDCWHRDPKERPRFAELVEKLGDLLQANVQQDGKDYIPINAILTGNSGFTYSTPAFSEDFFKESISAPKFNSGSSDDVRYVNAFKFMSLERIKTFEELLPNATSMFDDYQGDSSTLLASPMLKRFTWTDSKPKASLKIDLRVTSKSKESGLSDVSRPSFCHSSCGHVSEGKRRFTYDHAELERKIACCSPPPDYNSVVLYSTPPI
Method in brief: as §1

Row | SMILES | pIC50 (human CSF1-R (FMS)) | inhibition at 0.5 µM (BTK(h)) [%] | inhibition at 0.5 µM (Flt 4(h)) [%] | inhibition at 0.5 µM (Bmx(h)) [%] | inhibition at 0.5 µM (Flt 1(h)) [%]
1 | COc1ccc(Nc2nccc(Sc3ccc(NC(=O)CC#N)cc3)n2)cc1OC [Compound 101, 2-cyano-N-(4-(2-(3,4-dimethoxyphenylao)pyrimidin-4-ylthio)phenyl)acetamide] | > 7.00 | – | – | – | –
2 | C=CC(=O)Nc1ccc(Sc2nc(Nc3ccc(N4CCOCC4)cc3)ncc2C)cc1 [Compound 124, N-(4-(5-methyl-2-(4-morpholinophenylao)pyrimidin-4-ylthio)phenyl)acrylamide] | > 6.30 | 100 | 100 | 100 | 100
